The record followed here is US10624947B2, “Bactericidal peptides and uses thereof” (INDIANA UNIVERSITY RESEARCH AND TECHNOLOGY CORPORATION, priority 2016, dated 2020).

“Also recorded” adds a separate entry of the source. Read-outs that look alike come from different tables or passages of the source. Square brackets hold non-standard residues; d marks the D form. Ends that are not written are not given here. Peptide text beside a SMILES is read from it. AEEA = NCCOCCOCC(=O)O

One data set concerns V. angustum. Put plainly: Vibrios killing activity. It is filed as cell-based. Conditions: increasing concentrations of SMAP-29C.
Another data set deals with V. fischeri. Put plainly: Vibrios killing activity. Type of data set: cell-based. Conditions: increasing concentrations of SMAP-29C.
The test system of the next data set is V. harveyi. Put plainly: Vibrio growth with increasing peptide concentration. It is filed as cell-based. Particulars: increasing concentrations of SMAP-29C. How it is done: Bacteria within Vibrio genus are highly sensitive to the SMAP-29C peptide. Various strains of Vibrio were treated with increasing concentrations of SMAP-29C (See FIG. 7).
The next data set concerns E. coli Top10pHNSHP45. The data set can be described thus: Killing of colistin-resistant E. coli harboring mcr-1 plasmid. It is filed as cell-based, Escherichia coli. Conditions: for Reduction of Top10pHNSHP45 colony formation: 5 minute incubation (FIG. 12B).
For another data set, the system named is Pseudomonas aeruginosa. It is filed as cell-based.
Data set [1] concerns human red blood cells (hRBCs). The data set can be described thus: Hemolytic activity. Type of data set: cell-based.
Procedure: The amount of hemoglobin released was measured by the absorbance at 435 nm after a 60-minute incubation with the antimicrobial peptide. The percentage of hRBC lysis was normalized to the amount hemoglobin released by the suspension of the hRBCs in deionized water. The background amount of hRBC lysis was determined by adding phosphate buffered saline (PBS) at the same volume as 8 μM of the peptide to the hRBC for 1 h.
The hemolytic activities of peptides were determined using human red blood cells (hRBCs) (Innovative Research, Inc., cat. # IPLA-WB3-18103). The hRBCs were washed three times with PBS and then resuspended in PBS. The hRBCs solution was mixed with serial dilutions of the peptides in PBS buffer. The reaction mixtures were incubated for 45 min at 37° C. After centrifugation at 94×g for 10 min, the intact hRBCs were pelleted and the hemoglobin released from hRBCs was monitored by measuring the absorbance of the supernatant at 415 nm. The background level of absorbance was measured in sampled incubated with only PBS buffer. 100% hemolysis was determined in sampled incubated with water. The percentage of hemolysis was calculated according to the following equation. Percentage of hemolysis=[(Asample−Ablank)/Awater]*100%
Mammalian cells are thought to be less susceptible to cathelicidin peptides in part because the composition of their membrane will be less likely to interact with the peptides. To address this directly, human red blood cells (hRBCs) were tested for lysis after a 45-minute incubation with the peptides. The total lysis of hRBCs was determined by adding water to the cells. The amount of lysis during handling was determined by the addition of phosphate buffered saline at the same volume as that of the peptides.
The test system of a further data set is Cultured human cells. The data set can be described thus: MTT cytotoxicity assay. It is filed as cell-based. A general note: Tetrazolium assays rely on reduction of a dye to a coloured formazan, in cell work by metabolically active cells.
The next data set concerns Toll-like receptor 3. The data set can be described thus: Poly(I:C)-induced cytokine production in BEAS-2B cells, ELISA. Conditions: peptide 2 μM. It is filed as cell-based, human. On the technique in general: ELISA stands for enzyme-linked immunosorbent assay.
A further data set has as its system 19 Gram-negative strains. The data set can be described thus: MIC panel, number of strains inhibited. It is filed as cell-based. Conditions: of 19 Gram-negative strains.
Another data set relates to E. coli ATCC 25922. Put plainly: Bactericidal activity, viable colony formation. It is filed as cell-based, Escherichia coli. Conditions: for Viable colony formation, E. coli ATCC 25922 / Fold reduction, E. coli ATCC 25922: 2 μM peptide for 30 min; for Fold reduction, E. coli ATCC 25922: versus mock. How it is done:
(§1) The broth dilution assay tested for the inhibition of growth. To determine whether B22a has bactericidal activity, viable colonies that formed after bacteria were treated with 2 μM of B22a for 30 min were enumerated (Table 7). Peptide B22a reduced viable colony formation by E. coli by over 2 orders of magnitude. B22a reduced viable colony formation by P. aeruginosa by over 3 orders of magnitudes. B22a, like its predecessor B22, is a bactericidal for Gram-negative bacteria.

The test system of the next data set is P. aeruginosa PAO1. Put plainly: Bactericidal activity, viable colony formation. It is filed as cell-based, Pseudomonas aeruginosa. Conditions: for Viable colony formation, P. aeruginosa PAO1 / Fold reduction, P. aeruginosa PAO1: 2 μM peptide for 30 min; for Fold reduction, P. aeruginosa PAO1: versus mock. How it is done:
as §1

In another data set the test system is P. aeruginosa. The data set can be described thus: Growth rate of culture, optical density. Type of data set: cell-based, Pseudomonas aeruginosa. Particulars: 30 nM peptide. How it is done:
FIG. 21 is a graph showing of peptide B22 (mock), B22a and B22m1 (each at […]) can reduce bacterial growth of P. aeruginosa, wherein the bacteria were grown in a plate reader at 37° C. and shaken. Optical density was monitored every ten (10) minutes to track the growth rate.
This low concentration of the peptide should further decrease the possibility of peptide oligomerization, as oligomerization should be dependent on the concentration of the peptide. The growth of the bacterial culture was then monitored over time. […] The cell division time of E. coli and Enterobacter cloacae were also in the absence or presence of 100 nM of B22a. The presence of B22a increased the doubling time of both bacterial by more than 2-fold. […] Should B22a and B22m1 inhibit bacteria growth as well as kill bacteria through the formation of higher order structures in the membrane, the peptides may have multiple mechanisms to act against bacteria survival. Peptides that act by multiple mechanisms may result in lower bacterial resistance to the peptides.

Data set [2] is described as follows: Toxicity of peptides injected intraperitoneally. Type of data set: in vivo, mice. Particulars: intraperitoneal, 10 or 20 μM. As to the method:
FIGS. 23A, B show the efficacy and toxicity of modified peptides in mice. […] The survival of mice injected intraperitoneally with iron dextran at 48 h after intraperitoneal injection of 10 or 20 μM of the modified peptides. […] Vibrio vulnificus (V. v.) strain CMCP6 was injected at 1×10^6 CFU. […] All mice receive iron dextran by intraperitoneal injection. Where indicated, 1 h later 10^6 bacterial CFU in 100 μL was injected into the peritoneum (opposite side). 1 h later, 100 μL of the peptide at the indicated concentration was administered on the same side as the bacterial injection.
Since B22a was effective in preventing infection of V. vulnificus in a surgical incision model, we tested it for efficacy for systemic infection in a mouse septicemia model (1). Groups of mice (strain CD-1) were first injected with […], followed 1 h later with an intraperitoneal injection of 1×10e6 colony forming units of V. vulnificus strain […]. The B22a was then injected intraperitoneally 1 h later and morbidity was monitored hourly for two days.
PB22N and other modified peptides were tested in a septicemic mouse model. V. vulnificus is a highly-pathogenic bacterium, causing septicemia and high mortality. In mice injected intraperitoneally with V. vulnificus, the majority of the mice had to be euthanized within 24 h due to severe symptoms associated with septicemia (FIG. 23B). […] PB22N was effective in preventing mice from succumbing to systemic infection by the highly virulent V. vulnificus.

The test system of a further data set is Vibrio vulnificus. The data set can be described thus: Lethal sepsis model, surgical incision infection. Conditions: no V. vulnificus.

Procedure for 19 Gram-negative strains: (§2) Antimicrobial activity was determined using the broth microdilution method based on the general recommendation of the Clinical and Laboratory Standards Institute. Bacteria were grown in Mueller-Hinton broth at 37° C. until OD625 reached 0.06, and then bacteria were further diluted into 1:20 for later use. […] 10 microliter (μL) of diluted bacteria was mixed with 90 μL of peptides at varying concentrations followed by incubation at 37° C. for 16-18 hours. The MIC is the lowest peptide concentration at which visible growth was inhibited. The MIC value was determined at least twice in independent experiments and typically in 3-4 assays.
Procedure for E. coli Top10pHNSHP45: 1×10^5 CFUs of the bacteria were incubated for 30 min with the concentration of the peptides or colistin shown. Approximately 500 CFUs were then added as a droplet onto nonselective media for 18 h. […] The numbers are the means of three independent assays and those in parenthesis are the range for one standard deviation.
Each antimicrobial peptide was assayed at a final concentration of 2 μM. The number of viable bacterial colonies were determined by plating on a non-selective media and enumerated. Each result is the average of three independent assays. The fold reduction in the colony forming units (CFU) was calculated by dividing the number of CFUs in the mock-treated sample with the number in the peptide-treated samples.
Procedure for Enterobacter cloacae: as §2
Procedure for Enterococcus faecalis: as §2
Procedure for Escherichia coli: as §2
Procedure for Klebsiella pneumoniae: as §2
Procedure for Pseudomonas aeruginosa: as §2
Procedure for Serratia marcescens: as §2
Procedure for Staphylococcus aureus: as §2
Procedure for Toll-like receptor 3: Lung epithelial BEAS-2B cells were induced with poly(I:C) at 0.1 μg/ml and the amount of IL-6 secreted into the media 20 h later was assessed by ELISA. Where present, the antimicrobial peptide was at a final concentration of 2 μM.
IL-6 production was quantified by ELISA using the OptEIA™ kit (BD Biosciences). A typical assay used 2×10^4 BEAS-2B cells/well grown for 24 h in flat-bottom 96-well plates. Poly(I:C) was added to a final concentration of 0.13 μg/ml.
Procedure for V. angustum: (§3) Vibrios bacteria such as V. angustum or V fischeri were cultured in LM at 30° C. The V. angustum culture was 200× diluted, V. fischeri culture was 40× diluted. […] The peptides were incubated with the bacteria for 1 hour at 30° C. before plated into the bacteria culture (100 μL peptides and 20 μL mock). The cultures were incubated overnight and Colony Forming Units (CFUs) were counted.
Procedure for V. fischeri: as §3
Procedure for Vibrio vulnificus: The number of symptom-less mice in cages of 5 mice were recorded as a function of time. About 50 colony forming units of V. vulnificus were introduced into a surgical incision. The antimicrobial peptide B22 was introduced into the incision at 5 μM 1 h after the introduction of V. vulnificus to the surgical incision.
A lethal sepsis model from Vibrio vulnificus infection of CD-1 mice was selected. […] Cages of 5 mice were monitored every 2 h.

In the case of “RGLRRLGRKIAHGVKKCGPTVLRIIRIAGC [SMAP-29C]”, the “Growth of V. angustum” value in the data set on V. angustum is on record as “growth reduction correlation to the concentration of SMAP-29C”. Also, in the data set on V. fischeri, the “Growth of V. fischeri” value is given as “growth reduction correlation to the concentration of SMAP-29C”. The “Growth of V. harveyi” value with V. harveyi is reported as “growth reduction correlation to the concentration of SMAP-29C”. Also, the “Reduction of Top10pHNSHP45 colony formation” value in the data set with E. coli Top10pHNSHP45 is “several logs”.
Take GRFKRLRKKLKKLFKKLSPVIPLLHLG [BMAP-27B]: the values for the MIC in the data set with Pseudomonas aeruginosa, in the data set on Enterobacter cloacae and in the data set on Staphylococcus aureus were 4 µM, 4 µM and over 64 µM, respectively. Also, the Minimal inhibitory concentration in the data set with Pseudomonas aeruginosa and in the data set with Enterobacter cloacae was 4 µM throughout. Moreover, the RBC lysis result in data set [1] was “decreased RBC lysis compared to the control H2O”. In the data set with Cultured human cells, the “Cytotoxicity, MTT assay” value is listed as “no increased cytotoxicity compared to the controls”.
For the molecule GRFKRFRKKLKKLFKKLSPVIPLL [BMAP-24], in the data set on E. coli Top10pHNSHP45 (2 μM (FIG. 13)), the “Viable colonies of Top10pHNSHP45 relative to BMAP27B” value was “reduced the number of viable colonies relative to BMAP27B”. Further, in the data set on Toll-like receptor 3, the IL-6 production result was “do not enhance” and the IL-8 production result is reported as “do not enhance”. In the data set on Enterobacter cloacae, this molecule gave a minimum inhibitory concentration (MIC) of 2 µM. In addition, the “MICs with the carbapenem-resistant K. pneumoniae” value with Klebsiella pneumoniae was at most 4 µM. The same molecule registered an MIC in the data set with Enterococcus faecalis of 4 µM. For the same molecule, in the data set with Staphylococcus aureus, the MIC was over 64 µM and the “MICs for two strains of S. aureus” value was at least 64 µM.
“RLGNFFRKVKEKIGGGLKKVGQKIKDFLGNLVPRTAS [RL-37]”: in the data set with 19 Gram-negative strains, the “Number of strains inhibited at 16 μg/ml” value was 7/19.
The molecule “FRKKLKKLAKKLSPVIPLLKLG-NH2 [Peptide B22m1]” yielded an MIC in the data set with Pseudomonas aeruginosa of 2 µM. In addition, in the data set on E. coli ATCC 25922, the “Killing of E. coli compared with B22a” value is “comparable killing”; the “Viable colony formation, E. coli ATCC 25922” value is given as 4.7 × 10^5; the “Fold reduction, E. coli ATCC 25922” value was found to be 170. Also, in the data set with P. aeruginosa PAO1, the “Killing of P. aeruginosa compared with B22a” value is recorded as “comparable killing”; the “Viable colony formation, P. aeruginosa PAO1” value is under 20; the “Fold reduction, P. aeruginosa PAO1” value is over 6000. In addition, the “Growth rate of P. aeruginosa” value with P. aeruginosa is reported as “perceptibly reduced”. In addition, the MIC against Escherichia coli turned out to be 2 µM.
In the data set with Pseudomonas aeruginosa, “ARKKLKKLAKKLSPVIPLLKLG-NH2 [Peptide B22m2]” yielded a minimal inhibitory concentration (MIC) of 4 µM. In the data set on E. coli ATCC 25922, the “Viable colony formation, E. coli ATCC 25922” value is on record as 8.7 × 10^4 and the “Fold reduction, E. coli ATCC 25922” value was found to be 9. Besides, in the data set with P. aeruginosa PAO1, the “Reduction of viable colony formation by P. aeruginosa” value is recorded as “more than 2 logs”; the “Viable colony formation, P. aeruginosa PAO1” value is given as 7.3 × 10^3; the “Fold reduction, P. aeruginosa PAO1” value is recorded as 164. This molecule registered an MIC with Escherichia coli of 4 µM.
In the case of LLGDFFRKSKEKIGKEFKRIVQRIKDFLR [LL-29], the “Number of strains inhibited at 16 μg/ml” value in the data set on 19 Gram-negative strains is listed as 4/19.
As to “GLRKKFRKTRKRIQKLGRKIGKTGRKVWKAWREYGQIPYPCRI [CAP-11, reference compound]”, the “Number of strains inhibited at 16 μg/ml” value in the data set with 19 Gram-negative strains is 16/19. The molecule further displayed a Minimal inhibitory concentration in the data set with Escherichia coli of over 32 µg/mL.
On to `CC[C@H](C)[C@H](NC(=O)[C@@H](NC(=O)[C@@H]1CCCN1C(=O)[C@H](CO)NC(=O)[C@H](CC(C)C)NC(=O)[C@H](CCCCN)NC(=O)[C@H](CCCCN)NC(=O)[C@H](Cc1ccccc1)NC(=O)[C@H](CC(C)C)NC(=O)[C@H](CCCCN)NC(=O)[C@H](CCCCN)NC(=O)[C@H](CC(C)C)NC(=O)[C@H](CCCCN)NC(=O)[C@H](CCCCN)NC(=O)[C@H](CCCNC(=N)N)NC(=O)[C@H](Cc1ccccc1)NC(C)=O)C(C)C)C(=O)N1CCC[C@H]1C(=O)N[C@@H](CC(C)C)C(=O)N[C@@H](CC(C)C)C(=O)N[C@@H](CCCCN)C(=O)N[C@@H](CC(C)C)C(=O)NCC(=O)NCCOCCOCC(=O)O` [AB22P] (Ac-FRKKLKKLFKKLSPVIPLLKLG[AEEA]-OH), for which, in data set [2], the “Toxicity signs in mice injected with peptide” value (“Toxicity signs” for short) is on record as “no obvious symptoms were observed; also recorded: no obvious effects on mice behavior or appearance”.
With FRKKLKKLFKKLSPVIPLLKLG [Peptide B22], the minimal inhibitory concentration (MIC) is 2 µM against Pseudomonas aeruginosa, 2 µM against Enterobacter cloacae, over 32 µM with Enterococcus faecalis and over 64 µM with Staphylococcus aureus. The results for the Minimal inhibitory concentration in the data set with Enterobacter cloacae and in the data set with Serratia marcescens were 4 µM and over 32 µM, respectively. The “MICs with the carbapenem-resistant K. pneumoniae” value against Klebsiella pneumoniae is at most 4 µM. Also, the “MICs for two strains of S. aureus” value with Staphylococcus aureus was at least 64 µM. In addition, the “Symptoms of mice treated with B22 alone” value in the data set on Vibrio vulnificus is listed as “no symptom throughout the experiment”.
Consider Ac-FRKKLKKLFKKLSPVIPLLKLG-NH2 [AB22a], for which the “Toxicity signs” value is on record as “no obvious effects on mice behavior or appearance” in data set [2] and “no obvious symptoms were observed” in [2] (listed as AB22N).
As for “FRKKLKKLFKKLSPVIPLLKLG-NH2 [Peptide B22a]”, the MIC in the data set with Pseudomonas aeruginosa and in the data set with Escherichia coli was 2 µM throughout. Besides, the Minimal inhibitory concentration was 2 µM with Pseudomonas aeruginosa, 4 µM with Enterobacter cloacae, 2 µM in the data set on Klebsiella pneumoniae and over 32 µM with Serratia marcescens. Further, the “Toxicity signs” value in data set [2] was “did not exhibit distress or signs of toxicity”.
Regarding Colistin [reference compound], the “Killing of E. coli Top10pHNSHP45” value in the data set with E. coli Top10pHNSHP45 (2 μM, 5 minute incubation (FIG. 12A)) is “resistant”. Moreover, the “Reduction of Top10pHNSHP45 colony formation” value with E. coli Top10pHNSHP45 is on record as “little effect”. The minimum inhibitory concentration (MIC) is over 8 µg/mL in the data set on Klebsiella pneumoniae (Table 8, clinical isolate 262 (NDM1+)); 16 µg/mL with Klebsiella pneumoniae (Table 8, clinical isolate 284); over 16 µg/mL against Klebsiella pneumoniae (Table 8, clinical isolate 330); over 16 µg/mL in the data set on Klebsiella pneumoniae (Table 8, clinical isolate 361); over 8 µg/mL in the data set on Klebsiella pneumoniae (Table 11, clinical isolate 265); 16 µg/mL with Klebsiella pneumoniae (Table 11, clinical isolate 284). For the same molecule, the minimum inhibitory concentration (MIC) was over 16 µg/mL in the data set on Klebsiella pneumoniae (Table 11, clinical isolate 330) and over 16 µg/mL in the data set on Klebsiella pneumoniae (Table 11, clinical isolate 361).

What is called MIC is the lowest concentration that inhibits growth of the organism.
